Structures can show the parent of a compound that is named as a salt. Where two headings read alike, the source gives them in different places.
Experiments:
[1] = biological target: T1, human synthetic MSK1 (14-438-K, Millipore) (Homo sapiens, UniProt O75582); experiment: MSK1 enzymatic inhibition assay (Kinase-Glo luminescence); assay type: biochemical; details: for inhibition at 1 µM: compound at 1 µM, read-out: MSK1 % Inhibition 1 µM; for inhibition at 1 µM / inhibition at 10 µM / IC50: ± Standard Deviation (n = 4); for inhibition at 10 µM: compound at 10 µM, read-out: MSK1 % Inhibition 10 µM; for IC50: 8 concentrations 0.03-100 µM, read-out: MSK1 IC50; for MSK1 inhibitory activity (in words): tested at 1 and 10 µM
T1 construct: purchased Millipore 14-438-K
T1 sequence (O75582 whole entry): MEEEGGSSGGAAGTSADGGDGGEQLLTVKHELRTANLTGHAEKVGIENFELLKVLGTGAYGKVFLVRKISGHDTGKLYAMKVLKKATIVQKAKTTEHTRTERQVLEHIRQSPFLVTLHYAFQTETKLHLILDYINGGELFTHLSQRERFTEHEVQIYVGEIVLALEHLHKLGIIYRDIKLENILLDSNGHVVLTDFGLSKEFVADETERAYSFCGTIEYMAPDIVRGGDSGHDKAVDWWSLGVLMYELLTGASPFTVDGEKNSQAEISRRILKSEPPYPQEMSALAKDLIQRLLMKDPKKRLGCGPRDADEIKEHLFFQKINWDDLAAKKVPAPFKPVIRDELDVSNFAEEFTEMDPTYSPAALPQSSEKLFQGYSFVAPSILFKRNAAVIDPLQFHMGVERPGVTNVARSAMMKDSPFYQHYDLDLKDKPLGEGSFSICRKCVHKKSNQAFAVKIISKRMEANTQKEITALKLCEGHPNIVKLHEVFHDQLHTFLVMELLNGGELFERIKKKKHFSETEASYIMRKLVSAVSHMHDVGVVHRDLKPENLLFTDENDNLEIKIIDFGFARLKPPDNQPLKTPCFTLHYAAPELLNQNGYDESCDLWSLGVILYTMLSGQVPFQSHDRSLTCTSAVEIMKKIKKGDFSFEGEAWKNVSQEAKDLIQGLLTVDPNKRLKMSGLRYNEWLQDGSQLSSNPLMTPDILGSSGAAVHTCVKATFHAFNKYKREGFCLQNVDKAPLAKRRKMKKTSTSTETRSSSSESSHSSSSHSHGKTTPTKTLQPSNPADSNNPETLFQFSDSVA
Protocol: All results are summarized in Table 1, Table 2, Table 3, Table 4 and Table 5 and on Figure 4. […]
An orthogonal luminescence-based assay Kinase-Glo® (Promega, Madison, WI, USA) was used to validate the hits, quantifying the amount of the remaining ATP in the solution following the kinase reaction. Enzymatic reactions were performed up to 4h at room temperature in presence of 3 µM ATP. All compounds were tested in quadruplicates at 1 µM and 10 µM. […] Luminescence was measured with EnVision Plate Reader (Perkin Elmer).

[2] = WST-1 cytotoxicity test (cell viability); details: human, human pulmonary (lung) fibroblasts
Protocol: (§1) A WST1 (Roche) reagent assay was used to determine the cytotoxicity of compounds at 24 h of incubation. […] The absorbance was measured at 450 nm.

[3] = system: human pulmonary fibroblasts; experiment: WST-1 cytotoxicity test (cell viability); details: for cytotoxicity at 30 µM (in words): compound at 30 µM; for cytotoxicity (in words): WST-1, concentrations up to 30 µM
Protocol: as §1

IL-6 production = experiment: Inhibition of IL-6 production (ELISA) in IL-1β-stimulated primary human lung fibroblasts; details: for inhibition at 10 µM: read-out: Il-6 % Inhibition 10 µM; for inhibition at 30 µM: read-out: Il-6 % Inhibition 30 µM; for IC50: 0.3-30 µM, n = 4
Protocol: Primary human lung fibroblasts were cultured in DMEM/F-12 medium (Gibco Waltham, MA, USA) complemented with 10% fetal bovine serum (Gibco), penicillin (50 U/mL, Gibco), streptomycin (50 µg/mL, Gibco), L-glutamine (2 mM, Gibco), non-essential amino acids (0.1 mM, Gibco) and insulin (0.12 U/mL, Lilly, Indianapolis, IN, USA) Cells were used at passage 7.

Balb/C mice = experiment: OVA-induced asthma model, inflammatory cell recruitment in BAL; assay type: in vivo; details: vs vehicle-treated OVA mice
Protocol: We decided to use this compound in vivo together with our newly synthesized compound 49d.
Animal experimentation was conducted in accordance with the European Communities Council Directive of 24 November 1986 (86/609/EEC) and the French ministry with the approval of the Regional Ethics Committee for animal research at the Strasbourg University (Authorization number 2015080309399690). Nine week-old male Balb/c mice (Janvier) were sensitized on days 0 and 7 by i.p. injection of ovalbumin (OVA, 50 μg, grade V, Sigma-Aldrich) adsorbed on aluminium hydroxide (2 mg, Sigma-Aldrich) in PBS. Mice were challenged intranasally (i.n.) with OVA (10 μg) in 25 μL of saline on days 18–21. Control mice received i.n. administrations of saline alone. Mice received compound (10 or 30 mg/kg) in saline solution with DMSO 5% or vehicle (saline, DMSO 5%) administered i.p. 2 h before each saline or OVA challenge. Collection of the bronchoalveolar lavage (BAL) fluid was performed 24 h after the last OVA challenge. Cell counts were assessed by flow cytometry (LSRII® cytometer, BD bioscience). BAL cells were added with FCblock (5 μL, 553142, BD bioscience) in a black microplate, incubated for 20 min at room temperature. Then, marker antibodies were added: CD45-AlexaFluor700 (103128, BioLegend, San Diego, CA, USA), CD11b-APC-Cy7 (557657, BD bioscience), CD11c-FITC (557400, BD bioscience, Franklin Lakes, NJ, USA), Gr-1-Pe-eFluor610 (61-5931-82, eBioscience). Antibodies were incubated for 30 min before DAPI (5 μL, BD bioscience) addition, and flow cytometry was performed immediately. Eosinophils were selected by CD45^+, CD11b^+, CD11C^- and GR-1^- gating.

[4] = Homo sapiens, Fibroblast, read-out: Il-6 IC50 (µM), IL-1β stimulation
[5] = 10 mg/kg i.p. 2 h before each OVA challenge
[6] = 30 mg/kg i.p. 2 h before each OVA challenge

Structure (SMILES)	inhibition at 1 µM [1] [%]	inhibition at 10 µM [1] [%]	IC50 [1] [µM]	melting point [°C]	viability at 24 h, 10 µM [2] [%]	viability at 24 h, 30 µM [2] [%]	inhibition at 10 µM (IL-6 production; Homo sapiens, Fibroblast) [%]	inhibition at 30 µM (IL-6 production; Homo sapiens, Fibroblast) [%]	IC50 (IL-6 production; [4]) [µM]	also measured
Br.NC1=Nc2cccc(-c3ccccc3Cl)c2CN1 [Compound 37f, 5-(2-Chlorophenyl)-3,4-dihydroquinazolin-2-amine Hydrobromide]	0	38 ± 4	16.4 ± 4	178 to 179	100 ± 8	41 ± 9	17 ± 5			cytotoxicity at 30 µM (in words) [3]: cytotoxic
N=C(N)Nc1cccc(-c2ccc(C(F)(F)F)cc2)n1.O=C(O)C(F)(F)F [Compound 1c, 1-[6-(4-Trifluoromethylphenyl)pyridin-2-yl] guanidinium trifluoroacetate]	-6 ± 2	-1 ± 5		248 to 249						MSK1 inhibitory activity (in words) [1]: inactive
O=S(=O)(c1cccc2cnccc12)N1CCCNCC1 [Fasudil, fasudil, reference compound]	50 ± 10	82 ± 10					38 ± 6	81 ± 6	8.5 ± 5.1	
N=C(N)Nc1cccc(-c2cc(Cl)ccc2Cl)n1 [Compound 1q, 1-[6-(2,5-Dichlorophenyl)pyridin-2-yl] guanidiniumtrifluoroacetate]	23 ± 6	84 ± 4	0.9 ± 0.1		31 ± 19	13 ± 1				cytotoxicity (in words) [3]: cytotoxic
CCCNC1=Nc2cccc(-c3ccccc3)c2CN1 [Compound 60a]	0	2 ± 3		70 to 72						MSK1 inhibitory activity (in words) [1]: inactivity
N=C(N)Nc1cccc(-c2ccccc2)n1 [Compound 1a, 1-(6-phenylpyridin-2-yl)guanidine]	4 ± 4	42 ± 9	17.9 ± 3.9		122 ± 14	103 ± 5	17 ± 7	60 ± 4	16.3 ± 6.1	cytotoxicity (in words) [3]: non-toxic
Br.Nc1nc2c(-c3ccccc3Cl)cccc2[nH]1 [Compound 49d, 4-(2-Chlorophenyl)-1H-benzo[d]imidazol-2-amine Hydrobromide]	21 ± 5	71 ± 7	1.6 ± 0.1		85 ± 13	76 ± 12	39 ± 15	57 ± 2		fold more potent MSK1 inhibitor compared to the parent compound ([1]; versus parent compound 1a): 10 fold; inhibition of B cell infiltration in BAL (Balb/C mice; [5]): 47 ± 1%; inhibition of eosinophil infiltration in BAL (Balb/C mice; [5]): 39 ± 3%; inhibition of total cell infiltration in BAL (Balb/C mice; [5]): 33 ± 3%; cytotoxicity (in words) [3]: non-cytotoxic
N=C(N)Nc1cccc(-c2ccccc2F)n1 [Compound 1j, 1-[6-(2-Fluorophenyl)pyridin-2-yl] guanidiniumtrifluoroacetate]	6 ± 3	45 ± 9	5 ± 0.5		100 ± 8	41 ± 9	42 ± 4			cytotoxicity (in words) [3]: cytotoxic; cytotoxicity at 30 µM (in words) [3]: cytotoxic
N=C(N)Nc1cccc(-c2cccc(Cl)c2Cl)n1.O=C(O)C(F)(F)F [Compound 1o, 1-[6-(2,3-Dichlorophenyl)pyridin-2-yl] guanidinium trifluoroacetate]	7 ± 3	71 ± 13	2.3 ± 0.3	190 to 191						
O=S(=O)(NCCNC/C=C/c1ccc(Br)cc1)c1cccc2cnccc12 [Compound H89, H89, reference compound]	80 ± 8	93 ± 10	0.25 ± 0.06				38 ± 5	96 ± 1	10.5 ± 5.1	
N=C(N)Nc1cccc(-c2ccccc2C(F)(F)F)n1.O=C(O)C(F)(F)F [Compound 1m, 1-[6-(2-Trifluoromethylphenyl)pyridin-2-yl] guanidinium trifluoroacetate]	4 ± 2	38 ± 9	8.1 ± 1.2	157 to 158						
Br.COc1ccc(-c2cccc3[nH]c(N)nc23)cc1 [Compound 49c, 4-(4-Methoxyphenyl)-1H-benzo[d]imidazol-2-amine Hydrobromide]	-2 ± 6	25 ± 5		218 to 220						
NC1=Nc2cccc(-c3ccccc3)c2CN1 [Compound 37a]	-19 ± 1	44 ± 1	15.8 ± 3.2		122 ± 14	103 ± 5	18 ± 7	23 ± 6	> 30	IC50 (IL-6 production; read-out: Il-6 IC50, IL-1β stimulation): > 30 µM
c1ccc(NC2=Nc3cccc(-c4ccccc4)c3CN2)cc1 [Compound 60b]	-2 ± 1	1 ± 2		77 to 82						MSK1 inhibitory activity (in words) [1]: inactivity
Br.COc1cccc(-c2cccc3c2CNC(N)=N3)c1 [Compound 37e, 5-(3-Methoxyphenyl)-3,4-dihydroquinazolin-2-amine Hydrobromide]	-6 ± 4	3 ± 7		198 to 199						
Br.COc1ccccc1-c1cccc2c1CNC(N)=N2 [Compound 37g, 5-(2-Methoxyphenyl)-3,4-dihydroquinazolin-2-amine Hydrobromide]	-14 ± 3	-5 ± 1		226 to 229						
Nc1nc2c(-c3ccccc3)cccc2[nH]1 [Compound 49a, 4-Phenyl-1H-benzo[d]imidazol-2-amine hydrobromide]	5 ± 3	46 ± 6	3.6 ± 0.5		93 ± 17	91 ± 15	12 ± 4	22 ± 1	> 30	
O=C1NCCc2[nH]c(-c3ccncc3)cc21 [PHA767491, reference compound]	72 ± 5	94 ± 4			95 ± 9	87 ± 7	97 ± 1	98 ± 2	1 ± 0.1	decrease of B cells infiltration in BAL (Balb/C mice; [6]): 68 ± 7%; decrease of eosinophil infiltration in BAL (Balb/C mice; [6]): 57 ± 7%; decrease of total cell infiltration in BAL (Balb/C mice; [6]): 51 ± 6%
Br.Nc1nc2c(-c3cc(Cl)ccc3Cl)cccc2[nH]1 [Compound 49f, 4-(2,5-Dichlorophenyl)-1H-benzo[d]imidazol-2-amine Hydrobromide]	6 ± 3	61 ± 5	6.8 ± 0.8	202 to 205						
